Laboratory results taken from patent publication US20110150976A1, “TRANSDERMAL DELIVERY OF OLIGOSACCHARIDES” (TRANSPHARMA MEDICAL LTD., priority 2008, published 2011).
Like-named read-outs stand apart in the source and are kept apart here.

How the values were obtained:
[1] = Histological assessment of skin after micro-channel generation and treatment with fondaparinux; format: in vivo; conditions: pigs, 450 MCs/cm^2, dried patch 1.25 mg, biopsies 13 and 22.5 hours post application
Protocol: Histological assessments were performed in order to determine the effect of application of a high concentration of fondaparinux to skin in which micro-channels have been generated. Pigs were treated with […] apparatus to generate micro-channels at a density of 450 MCs/cm^2 (burst length of 6000 μsec). […] All biopsies (8 mm diameter) were fixed in 4% formaldehyde buffer for at least 48 hrs followed by staining with eosin and hematoxylin (H&E).

[2] = human; cited from earlier work
[3] = In-vitro dissolution of printed patches; format: physicochemical; conditions: printed patches 5 mg fondaparinux with 3.6 mg NaCl, from lyophilized Arixtra
Protocol: As the printed patches were prepared following lyophilization of the Arixtra® for injection, 5 mg fondaparinux in each patch contained 3.6 mg of NaCl (42% of the total patch solids).

[4] = parameters: species or system pigs; conditions: pig, in vivo
Protocol: Transdermal delivery of fondaparinux from a printed patch through micro-channels generated in pig skin by the […] apparatus was evaluated. The experiment included the following groups: • 1. […] To prepare the printed patches containing fondaparinux, a concentrated reconstituted solution of Arixtra® (fondaparinux sodium) was applied onto the patch and then air-dried. Each patch was affixed to the […] treated skin for 24 hours.

[5] = parameters: species or system pigs; conditions: pig, in vivo; remark: listed apart in the source
Protocol: Transdermal delivery of fondaparinux from a silicon pouch containing the pentasaccharide in solution through micro-channels generated in pig skin by the […] apparatus was evaluated. The experiment included the following groups: • 1.

abnormalities in the skin tissue (histology, H&E) [1]: no abnormalities
signs of bleeding at the site of the treated skin (histology, H&E) [1]: no signs of bleeding
in-vitro dissolution of printed patches [3]: ~85%
bioavailability from printed patches ([4]; 5 mg): 11-17%
% BA (bioavailability) ([4]; sc, 1 mg): 100%
AUC ([4]; sc, 1 mg): 291 1.25 ± 2242.07 ng*h/ml
Tmax ([4]; sc, 1 mg): 2 h
AUC ([5]; sc, 1 mg): 1533.33 ± 1303.96 ng·h/mL
Cmax ([5]; sc, 1 mg): 235.72 ± 47.79 ng/mL
AUC ([5]; topical or ocular, 28 mg): 5659.33 ± 956.94 ng·h/mL
Cmax ([5]; topical or ocular, 28 mg): 709.74 ± 103.61 ng/mL
SMILES: CO[C@H]1O[C@H](COS(=O)(=O)O)[C@@H](O[C@@H]2O[C@@H](C(=O)O)[C@@H](O[C@H]3O[C@H](COS(=O)(=O)O)[C@@H](O[C@@H]4O[C@H](C(=O)O)[C@@H](O[C@H]5O[C@H](COS(=O)(=O)O)[C@@H](O)[C@H](O)[C@H]5NS(=O)(=O)O)[C@H](O)[C@H]4O)[C@H](OS(=O)(=O)O)[C@H]3NS(=O)(=O)O)[C@H](O)[C@H]2OS(=O)(=O)O)[C@H](O)[C@H]1NS(=O)(=O)O [fondaparinux]
half-life [2]: approximately 17 hours
